Measurements published in ChEMBL document CHEMBL1201862, “PubChem BioAssay data set” (2004).
The source made the active and inactive calls. For most assays here, no stated cut-off is given here; in the data, actives have a measured EC50 and inactives only a lower limit.

Tests used:
[1] = A Cell Based Secondary Assay To Explore Cytotoxicity of Compounds that Sensitize Mycobacterium Tuberculosis to Beta-Lactam Antibiotics.; type: functional
[2] = target: T1, Apoptotic protease-activating factor 1 (Homo sapiens, UniProt O14727); type: functional
T1 sequence (O14727 whole entry): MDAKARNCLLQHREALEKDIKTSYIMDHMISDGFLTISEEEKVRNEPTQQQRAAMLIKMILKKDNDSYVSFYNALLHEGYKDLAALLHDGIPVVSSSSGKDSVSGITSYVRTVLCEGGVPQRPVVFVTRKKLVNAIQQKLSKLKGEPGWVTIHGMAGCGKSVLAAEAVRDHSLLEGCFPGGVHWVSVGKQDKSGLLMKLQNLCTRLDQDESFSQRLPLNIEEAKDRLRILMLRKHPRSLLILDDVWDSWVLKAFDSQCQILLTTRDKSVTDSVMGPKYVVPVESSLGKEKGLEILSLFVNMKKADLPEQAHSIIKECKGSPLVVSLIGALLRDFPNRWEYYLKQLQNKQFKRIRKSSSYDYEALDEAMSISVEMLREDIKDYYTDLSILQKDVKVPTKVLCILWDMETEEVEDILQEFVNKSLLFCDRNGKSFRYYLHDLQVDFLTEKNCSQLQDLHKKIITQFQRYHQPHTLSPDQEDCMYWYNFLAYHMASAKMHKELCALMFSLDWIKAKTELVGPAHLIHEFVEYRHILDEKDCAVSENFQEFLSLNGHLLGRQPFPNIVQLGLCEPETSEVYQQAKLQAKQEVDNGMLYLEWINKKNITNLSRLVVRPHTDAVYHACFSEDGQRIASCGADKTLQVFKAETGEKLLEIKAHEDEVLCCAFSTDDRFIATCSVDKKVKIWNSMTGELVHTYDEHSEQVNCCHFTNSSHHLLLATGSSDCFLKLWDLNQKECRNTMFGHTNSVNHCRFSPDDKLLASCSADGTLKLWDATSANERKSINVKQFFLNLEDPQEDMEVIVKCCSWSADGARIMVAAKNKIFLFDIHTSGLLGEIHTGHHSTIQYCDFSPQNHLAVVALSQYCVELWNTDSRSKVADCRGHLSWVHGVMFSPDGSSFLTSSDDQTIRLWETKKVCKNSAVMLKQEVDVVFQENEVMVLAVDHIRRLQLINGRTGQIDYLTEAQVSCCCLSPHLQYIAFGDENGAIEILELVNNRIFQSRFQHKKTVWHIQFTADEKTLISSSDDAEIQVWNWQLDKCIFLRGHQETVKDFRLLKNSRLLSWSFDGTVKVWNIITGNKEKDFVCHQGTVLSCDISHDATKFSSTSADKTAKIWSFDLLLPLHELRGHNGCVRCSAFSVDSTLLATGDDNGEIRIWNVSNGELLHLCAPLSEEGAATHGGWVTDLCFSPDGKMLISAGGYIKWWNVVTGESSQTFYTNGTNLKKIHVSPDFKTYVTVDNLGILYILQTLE

[3] = target: Luciferin 4-monooxygenase (Photinus pyralis, UniProt P08659); assay: firefly luciferase enzyme inhibitors, dose response, biochemical, luminescence (AID 1891)
[4] = Luminescence Cell-Based Dose Confirmation HTS to Identify Inhibitors of Platelet Dense Granule Release. [Related pubchem assays: 1663 (Primary HTS), 1678 (Summary of Project)]; type: functional
HT-1080 = assay: cytotoxicity in HT1080 fibrosarcoma cells, cell-based, fluorescence readout (AID 620); type: functional; settings: Homo sapiens
[5] = cytotoxicity in KRAS-transformed pancreatic duct cells, primary screen, cell-based, fluorescence, HTS (AID 431); type: functional; settings: Homo sapiens;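 further: cell line used: HPDE-C7K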
Vero [6] = assay: Vero cell cytotoxicity, cytotoxicity control for flavivirus capping enzyme inhibitors (AID 588742); type: functional; settings: Chlorocebus sabaeus
[7] = cytotoxicity in HPDE-C7 cells, cell-based, fluorescence, HTS (AID 430); type: functional; settings: Homo sapiens
Vero [8] = assay: host cell cytotoxicity of antiviral hits, dose response, cytotoxicity control for West Nile virus antiviral project, secondary assay (AID 1650); type: functional; settings: Chlorocebus sabaeus
H4 = assay: Luminescence Cell-Based Dose Response HTS to Identify Activators of 5'UTR Stem-Loop Driven Prion Protein mRNA Translation in H4 Neuroglioblastoma Cells. [Related pubchem assays: 1829 (Project Summary), 1814 (Primary HTS)]; type: functional; settings: Homo sapiens
BJ [9] = assay: cytotoxicity toward BJ-TERT-LT-ST fibroblasts, dose response, cell-based, RAS-independent, luminescence (AID 1935); type: functional; settings: Homo sapiens;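 further: BJ fibroblasts immortalized with TERT plus LT and ST oncogenes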
[10] = cytotoxicity toward DRD oncogenic fibroblasts, dose response, cell-based, non-viral oncogenic, luminescence (AID 1934); type: functional; settings: Homo sapiens
[11] = Luminescence Cell-Based Dose Response HTS to Identify Activators of Luciferase Translation or Activity in H4 […] Cells. [Related pubchem assays: 1829 (Project Summary), 1814 (Primary HTS)]; type: functional
BJ [12] = assay: cytotoxicity toward Ras-transformed BJeLR fibroblasts, dose response, cell-based, alamar blue fluorescence, cherrypicked samples (AID 2631); type: functional; settings: Homo sapiens;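 further: confirmatory dose-response assay in RAS-dependent BJ fibroblasts engineered with TERT, LT and ST, with cytotoxicity read by fluorescence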
[13] = Luminescence Cell-Based Dose Confirmation HTS to Identify Activators of 5'UTR Stem-Loop Driven Alpha-Synuclein mRNA Translation in H4 Neuroglioblastoma Cells. [Related pubchem assays: 1829 (Project Summary), 1814 (Primary HTS)]; type: functional
BJ [14] = assay: cytotoxicity toward BJ-TERT fibroblasts, dose response, cell-based, RAS-independent, luminescence (AID 1933); type: functional; settings: Homo sapiens
BJ [15] = assay: cells; type: functional, cell-based; settings: Homo sapiens
Vero [16] = assay: cells; type: functional; settings: Chlorocebus sabaeus
[17] = target: ATP-binding cassette sub-family B member 6 (Homo sapiens, UniProt Q9NP58); assay: ABCB6 transporter inhibitors, porphyrin accumulation, dose response, flow cytometry, K562-ABCB6 cells, cherry pick 02 (AID 624487); type: functional; settings: read-out: EC50_MICROM
[18] = HepG2 cell cytotoxicity, dose response, cytotoxicity control for Shn3 inhibitor project, CellTiter-Glo, cherry-picked (AID 624134); type: functional, cell-based
[19] = tested on: Streptococcus sp. 'group A'; assay: growth inhibition of control SK(-) GAS strain, dose response, counter-screen for streptokinase expression inhibitor project, luminescence, kanamycin, BacTiterGlo, confirmation (AID 1900); type: functional, organism-based
[20] = target: T2, Replicative DNA helicase DnaB (Mycobacterium tuberculosis, UniProt P9WMR3); assay: DnaB intein splicing inhibitors, dose response, biochemical, cell-free fluorescence (AID 449749); type: functional
T2 sequence (P9WMR3 whole entry): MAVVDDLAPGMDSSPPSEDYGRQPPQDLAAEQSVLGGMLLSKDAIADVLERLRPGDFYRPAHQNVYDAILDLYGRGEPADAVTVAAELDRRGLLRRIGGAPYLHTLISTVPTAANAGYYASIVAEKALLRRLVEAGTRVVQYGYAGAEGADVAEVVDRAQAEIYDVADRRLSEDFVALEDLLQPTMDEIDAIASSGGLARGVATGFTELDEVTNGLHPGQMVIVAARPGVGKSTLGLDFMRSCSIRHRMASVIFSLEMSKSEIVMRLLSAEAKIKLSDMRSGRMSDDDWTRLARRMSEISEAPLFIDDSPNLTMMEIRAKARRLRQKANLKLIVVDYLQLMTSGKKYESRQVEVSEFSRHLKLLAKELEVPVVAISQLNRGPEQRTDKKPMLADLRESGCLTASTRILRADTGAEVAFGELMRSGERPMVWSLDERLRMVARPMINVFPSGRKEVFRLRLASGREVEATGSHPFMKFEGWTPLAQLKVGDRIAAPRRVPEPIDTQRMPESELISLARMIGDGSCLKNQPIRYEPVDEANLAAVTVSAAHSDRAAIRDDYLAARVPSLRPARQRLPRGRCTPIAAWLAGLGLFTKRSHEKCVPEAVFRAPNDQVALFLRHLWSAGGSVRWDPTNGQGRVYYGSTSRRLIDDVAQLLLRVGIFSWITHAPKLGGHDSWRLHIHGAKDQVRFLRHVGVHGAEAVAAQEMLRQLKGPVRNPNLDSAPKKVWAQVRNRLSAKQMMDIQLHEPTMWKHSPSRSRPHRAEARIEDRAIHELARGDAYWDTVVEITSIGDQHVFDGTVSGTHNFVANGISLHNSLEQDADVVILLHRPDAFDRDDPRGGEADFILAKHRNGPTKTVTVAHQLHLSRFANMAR

[21] = Luminescence Cell-Based Dose Retest to Confirm Inhibitors of Cancer Stem Cells. [Related pubchem assays (depositor defined):AID2717, AID2721]; type: functional; settings: Homo sapiens
Streptococcus = assay: Group A Streptococcus viability loss, dose response, counter-screen for streptokinase expression inhibitor project, luminescence, BacTiterGlo (AID 1915); type: functional, organism-based;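 further: potency for reduction of bacterial viability or growth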
[22] = Shn3 3'UTR reporter inhibitors, dose response, cell-based, Clone20 osteoblasts, firefly luciferase, cherry-picked (AID 624132); type: functional;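 further: firefly luciferase luminescence from reporter carrying the Shn3 3'UTR in osteoblasts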
Streptokinase A = target: T3, Streptokinase A (Streptococcus pyogenes serotype M1, UniProt P10520); assay: S. pyogenes streptokinase expression inhibitors, potency, dose response, plasminogen activation absorbance, OD405 (AID 1914); type: functional, Streptococcus pyogenes M1 GAS;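 further: secreted streptokinase activity via plasminogen activation per viability signal from cell pellet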
T3 sequence (P10520 whole entry): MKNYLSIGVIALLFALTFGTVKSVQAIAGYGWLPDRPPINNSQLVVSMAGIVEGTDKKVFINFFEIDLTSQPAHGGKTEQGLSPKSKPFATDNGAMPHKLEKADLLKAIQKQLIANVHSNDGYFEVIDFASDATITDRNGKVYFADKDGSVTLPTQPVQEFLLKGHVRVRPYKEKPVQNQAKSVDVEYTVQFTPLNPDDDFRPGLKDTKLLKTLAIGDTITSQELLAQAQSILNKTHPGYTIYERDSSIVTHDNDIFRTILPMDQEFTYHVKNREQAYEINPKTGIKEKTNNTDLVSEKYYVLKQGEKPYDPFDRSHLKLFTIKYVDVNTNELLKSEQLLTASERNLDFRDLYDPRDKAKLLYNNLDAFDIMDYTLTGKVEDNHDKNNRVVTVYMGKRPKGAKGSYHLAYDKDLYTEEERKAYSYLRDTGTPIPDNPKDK

Protein RecA = target: T4, Protein RecA (Mycobacterium tuberculosis, UniProt P9WHJ3); assay: Fluorescence Cell-Free Homogeneous Dose Retest to Identify Inhibitors of RecA-Intein Splicing Activity. [Related pubchem assays (depositor defined):AID2097, AID2223, AID489010, AID492950]; type: functional
T4 sequence (P9WHJ3 whole entry): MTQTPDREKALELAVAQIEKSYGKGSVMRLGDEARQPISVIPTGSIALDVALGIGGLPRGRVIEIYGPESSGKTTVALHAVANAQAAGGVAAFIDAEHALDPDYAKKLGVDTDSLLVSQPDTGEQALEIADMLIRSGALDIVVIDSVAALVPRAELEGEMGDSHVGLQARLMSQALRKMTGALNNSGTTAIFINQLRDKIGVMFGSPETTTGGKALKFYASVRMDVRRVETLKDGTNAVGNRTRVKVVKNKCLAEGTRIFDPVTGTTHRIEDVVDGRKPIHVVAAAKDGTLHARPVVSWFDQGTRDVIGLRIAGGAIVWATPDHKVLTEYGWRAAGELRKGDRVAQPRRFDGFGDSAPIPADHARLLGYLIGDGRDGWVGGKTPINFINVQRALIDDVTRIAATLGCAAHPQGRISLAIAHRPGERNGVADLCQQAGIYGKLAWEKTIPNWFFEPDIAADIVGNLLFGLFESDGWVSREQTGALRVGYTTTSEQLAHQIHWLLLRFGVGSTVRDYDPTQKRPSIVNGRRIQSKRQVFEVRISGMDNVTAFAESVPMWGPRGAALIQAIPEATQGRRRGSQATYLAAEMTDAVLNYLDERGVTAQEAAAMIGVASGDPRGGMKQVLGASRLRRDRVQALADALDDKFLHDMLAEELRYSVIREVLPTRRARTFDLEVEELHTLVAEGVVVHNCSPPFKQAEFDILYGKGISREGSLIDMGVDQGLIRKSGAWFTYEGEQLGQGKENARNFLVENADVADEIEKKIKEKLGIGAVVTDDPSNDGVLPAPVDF

[23] = control 3'UTR Renilla luciferase suppression, dose response, counter-screen for Shn3 inhibitor project, cell-based, Clone20-Shn3RL, cherry-picked (AID 624133); type: functional
CHO = assay: cytotoxicity in TLR9-MyD88 CHO cells, dose response, cytotoxicity control for TLR9-MyD88 binding inhibitor project, cell-based, luminescence (AID 588339); type: functional, hamster; settings: Cricetulus griseus;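 further: CHO cells stably coexpressing TLR9 and MyD88 fusions from primary screen; compound exposure lasted 48 hours before viability readout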

Chain of Luciferin 4-monooxygenase (P08659 whole entry): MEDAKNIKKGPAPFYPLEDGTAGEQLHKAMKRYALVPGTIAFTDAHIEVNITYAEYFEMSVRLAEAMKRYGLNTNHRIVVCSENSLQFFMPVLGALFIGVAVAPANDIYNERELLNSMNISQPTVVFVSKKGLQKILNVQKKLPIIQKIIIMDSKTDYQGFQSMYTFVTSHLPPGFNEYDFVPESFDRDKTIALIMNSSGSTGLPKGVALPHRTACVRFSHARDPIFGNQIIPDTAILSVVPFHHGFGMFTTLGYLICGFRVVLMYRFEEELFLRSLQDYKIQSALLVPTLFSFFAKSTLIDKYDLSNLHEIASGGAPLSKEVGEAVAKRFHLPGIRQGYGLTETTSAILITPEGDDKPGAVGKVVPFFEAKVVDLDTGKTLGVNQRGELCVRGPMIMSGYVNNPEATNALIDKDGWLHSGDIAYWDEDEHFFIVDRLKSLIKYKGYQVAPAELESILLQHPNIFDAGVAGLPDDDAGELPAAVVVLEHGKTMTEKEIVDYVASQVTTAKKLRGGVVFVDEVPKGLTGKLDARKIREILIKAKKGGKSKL
Chain of ATP-binding cassette sub-family B member 6 (Q9NP58 whole entry): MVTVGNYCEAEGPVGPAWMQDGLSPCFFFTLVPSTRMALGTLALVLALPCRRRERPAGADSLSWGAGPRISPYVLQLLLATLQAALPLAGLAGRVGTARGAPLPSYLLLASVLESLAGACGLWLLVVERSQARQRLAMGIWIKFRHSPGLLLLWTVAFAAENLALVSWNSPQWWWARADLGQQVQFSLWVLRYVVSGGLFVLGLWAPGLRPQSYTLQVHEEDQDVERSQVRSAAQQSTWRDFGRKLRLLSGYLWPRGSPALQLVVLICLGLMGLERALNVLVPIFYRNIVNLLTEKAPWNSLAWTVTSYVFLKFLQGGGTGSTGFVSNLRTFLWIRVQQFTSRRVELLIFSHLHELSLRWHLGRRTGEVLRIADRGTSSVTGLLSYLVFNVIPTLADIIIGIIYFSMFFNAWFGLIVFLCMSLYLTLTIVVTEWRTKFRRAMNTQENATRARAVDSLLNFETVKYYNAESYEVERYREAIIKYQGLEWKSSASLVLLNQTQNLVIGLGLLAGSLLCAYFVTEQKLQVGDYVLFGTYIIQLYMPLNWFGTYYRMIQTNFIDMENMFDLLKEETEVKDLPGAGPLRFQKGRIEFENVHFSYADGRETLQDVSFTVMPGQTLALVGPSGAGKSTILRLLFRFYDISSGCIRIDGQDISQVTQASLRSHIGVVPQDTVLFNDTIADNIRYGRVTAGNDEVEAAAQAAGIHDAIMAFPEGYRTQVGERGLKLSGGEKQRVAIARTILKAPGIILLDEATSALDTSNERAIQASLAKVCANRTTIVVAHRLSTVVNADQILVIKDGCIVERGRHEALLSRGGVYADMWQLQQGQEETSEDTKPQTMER

Structure (SMILES): O=C1N/C(=C\c2ccc(O)cc2)C(=O)c2ccccc21
- CC50 [1]: > 40 µM (active)
- IC50 [2]: 3.21 µM (active)
- EC50 [3]: 0.661 µM (active)
- EC50 [4]: 1.15 µM (active)

Structure (SMILES): O=C(NCc1cccs1)c1nc(O)c2nnn(Cc3ccccc3Cl)c2n1
- EC50 (HT-1080): > 50 µM (not active)
- EC50 [5]: > 20 µM (not active)
- CC50 (Vero [6]): 7 µM (active)
- EC50 [7]: > 20 µM (not active)
- CC50 (Vero [8]): 14.6 µM (active)

Structure (SMILES): CN1CCN(C(=O)CCCN2C(=O)/C(=C/c3cccc(Br)c3)SC2=S)CC1
- EC50 (H4): > 120 µM (not active)
- EC50 (BJ [9]): > 150 µM (inconclusive)
- EC50 [10]: 4.36 µM (active)
- EC50 [11]: > 120 µM (not active)
- EC50 (BJ [12]): > 66.7 µM (inactive)
- EC50 [13]: 13.9 µM (active)
- EC50 (BJ [14]): 1.93 µM (active)
- EC50 (BJ [15]): > 150 µM (inconclusive)
- CC50 (Vero [16]): > 25 µM (active)

Structure (SMILES): Cc1ccc(NC(=O)c2nc(S(=O)(=O)Cc3ccccc3C)ncc2Cl)cc1C
- EC50 [17]: 20.5 µM (active)
- AC50 [18]: 30.8 µM (active)
- EC50 [19]: 9.97 µM (active)
- AC50 [20]: > 380 µM (inconclusive)
- AC50 [21]: 2.01 µM (active)
- EC50 (Streptococcus): 22.2 µM (inconclusive)
- AC50 [22]: 0.486 µM (active)
- EC50 (Streptokinase A): 1.32 µM (active)
- EC50 (Protein RecA): 1.31 µM (active)
- AC50 [23]: 8.07 µM (active)
- IC50 (CHO): 5.02 µM (active)
